In US7456153B2, “Compounds and methods for modulating functions of classical cadherins” (Adherex Technologies Inc., priority 2002, dated 2008):

Assays:
[1] = molecular target: Fc-E-cadherin chimeric protein; assay: BIAcore binding of peptide modulating agents to captured Fc-E-cadherin; settings: absence of calcium
Protocol: The binding of representative peptide modulating agents to Fc-E-cadherin chimeric protein in either the presence (3 mM CaCl2) or absence of calcium was assessed using a BIAcore X™ Biosensor (Pharmacia Ltd., Sweden). Protein A was immobilized on the flow cells of a CM 5 sensor chip using a standard amine coupling method. The surfaces were activated with a 7 min injection of NHS/EDC, followed by a 7 min injection of protein A in 10 mM acetate pH 5.0 at a concentration of 50 ug/mL and blocked with a 7 min injection of […] ethanolamine, pH 8.2. […] Next, Fc-E-cadherin was injected over the protein A surface to be captured on the sensor chip.
To test compound binding to these surfaces, candidate modulating agents were injected in a three-fold dilution series over the Fc-E-cadherin-coated surfaces using six concentrations and each concentration was repeated twice.

[2] = tested on: SKOV3 human ovarian cancer cells; assay: Disruption of confluent SKOV3 monolayers (microscopic examination); type: cell-based; settings: 1 mg/ml of culture medium, 24 hours
Protocol: We investigated the effects of the linear peptide ADH254 (H-DWVIPP-NH2; classical cadherin derived peptide) on confluent cultures of SKOV3 cells. SKOV3 human ovarian cancer cells express N-cadherin. The cells were cultured in minimum essential medium (MEM) supplemented with 10% fetal calf serum, non-essential amino acids, fungizone, penicillin-streptomycin, and gentamicin in a humidified atmosphere (5% CO2) at 37° C. All culture reagents were purchased from GIBCO (Burlington, ON). ADH254 (1 mg/ml of culture medium) was added to confluent cultures of SKOV3 cells. After 24 hours of treatment, the cells were fixed with 4% paraformaldehyde, followed by 3 washes with phosphate buffered saline, and then stained with hematoxylin. Control cultures were grown in the absence of peptide.
The peptide caused the SKOV3 cells to detach from one another and adopt an elongated, fibroblast-like morphology. These observations indicate that Trp containing peptides can disrupt cell adhesion.

| KD Fc-ECAD no Ca++ [1] | Substance | disruption of confluent SKOV3 monolayers [2] |
| --- | --- | --- |
| no binding | DWVIPA [H-DWVIPA-NH2] |  |
| no binding | DWVIPP [H-DWVIPP-NH2] | caused disruption of the confluent SKOV3 monolayers |
| no binding | PWVIPP [H-PWVIPP-NH2] |  |

The next lines start with the substance.

| Substance | KD Fc-ECAD no Ca++ [1] | disruption of confluent SKOV3 monolayers [2] |
| --- | --- | --- |
| AWVIPP [H-AWVIPP-NH2] | no binding |  |
| DWVAPP [H-DWVAPP-NH2] | no binding |  |
| DWVIAP [H-DWVIAP-NH2] | no binding |  |
